The record followed here is PubChem BioAssay AID248 (DTP/NCI, 2004).

Where “and” joins values, the source holds several entries; their conditions need not be identical. Equal entries are not always repeated. Toxic doses and inconclusive results are not listed.

This assay has as its system L1210 leukemia ip in BDF1 mice, survival T/C. Kind of assay: NCI In Vivo Anticancer Drug Screen. Data for tumor model L1210 Leukemia (intraperitoneal) in B6D2F1 (BDF1) mice. As to conditions: higher = longer survival. The method, boiled down: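 Tumor was transplanted into mice, which were then dosed with test compound or vehicle alone. Survival was recorded for each group, and the treated figure was expressed relative to the control figure.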

The mark [1] stands for this setting: endpoint: mean survival time, dose: 100.0 mg/kg/injection, schedule: Q01DX001 (ip), vehicle: saline.
Setting [2] is: endpoint: mean survival time, dose: 200.0 mg/kg/injection, schedule: Q01DX001 (ip), vehicle: saline.
Setting [3] is: endpoint: mean survival time, dose: 400.0 mg/kg/injection, schedule: Q01DX001 (ip), vehicle: saline.
The mark [4] stands for this setting: endpoint: mean survival time, dose: 100.0 mg/kg/injection, schedule: Q01DX009 (ip), vehicle: saline.
The mark [5] stands for this setting: endpoint: mean survival time, dose: 200.0 mg/kg/injection, schedule: Q01DX009 (ip), vehicle: saline.
[6] abbreviates: endpoint: mean survival time, dose: 400.0 mg/kg/injection, schedule: Q01DX009 (ip), vehicle: saline.
Setting [7] is: endpoint: mean survival time, dose: 100.0 mg/kg/injection, schedule: Q04DX003 (ip), vehicle: saline.
Setting [8] is: endpoint: mean survival time, dose: 200.0 mg/kg/injection, schedule: Q04DX003 (ip), vehicle: saline.
Setting [9] is: endpoint: mean survival time, dose: 400.0 mg/kg/injection, schedule: Q04DX003 (ip), vehicle: saline.
The mark [10] stands for this setting: endpoint: mean survival time, dose: 100.0 mg/kg/injection, schedule: Q01DX009 (ip), vehicle: saline with Tween-80.
[11] abbreviates: endpoint: mean survival time, dose: 100.0 mg/kg/injection, schedule: Q04DX003 (ip), vehicle: Klucel (hydroxypropylcellulose) (HPC).
[12] abbreviates: endpoint: mean survival time, dose: 200.0 mg/kg/injection, schedule: Q04DX003 (ip), vehicle: Klucel (hydroxypropylcellulose) (HPC).
The mark [13] stands for this setting: endpoint: mean survival time, dose: 400.0 mg/kg/injection, schedule: Q04DX003 (ip), vehicle: Klucel (hydroxypropylcellulose) (HPC).

Consider `N=C(N)c1ccc(Nc2ccc(C(=N)N)cc2)cc1`, for which the T/C reads like this: (endpoint: mean survival time, dose: 3.0 mg/kg/injection, schedule: Q01DX010 (ip), vehicle: saline) 95 % of control and 91 % of control; (endpoint: mean survival time, dose: 6.0 mg/kg/injection, schedule: Q01DX010 (ip), vehicle: saline) 95 % of control and 91 % of control; (endpoint: mean survival time, dose: 12.0 mg/kg/injection, schedule: Q01DX010 (ip), vehicle: saline) 94 % of control and 97 % of control; (endpoint: mean survival time, dose: 15.0 mg/kg/injection, schedule: Q02DX010 (ip), vehicle: carboxymethylcellulose (CMC)) 99 % of control; (endpoint: mean survival time, dose: 24.0 mg/kg/injection, schedule: Q01DX010 (ip), vehicle: saline) 89 % of control and 91 % of control; (endpoint: mean survival time, dose: 30.0 mg/kg/injection, schedule: Q02DX010 (ip), vehicle: carboxymethylcellulose (CMC)) 103 % of control. The T/C (endpoint: mean survival time, dose: 44.0 mg/kg/injection, schedule: Q02DX010 (ip), vehicle: carboxymethylcellulose (CMC)) was 89 % of control; the T/C (endpoint: mean survival time, dose: 47.0 mg/kg/injection, schedule: Q01DX001 (ip), vehicle: water) is 97 % of control; the T/C (endpoint: mean survival time, dose: 66.0 mg/kg/injection, schedule: Q02DX010 (ip), vehicle: carboxymethylcellulose (CMC)) was 77 % of control; the T/C (endpoint: median survival time, dose: 6.0 mg/kg/injection, schedule: Q01DX009 (ip), vehicle: saline) was 105 % of control and 112 % of control; the T/C (endpoint: median survival time, dose: 12.0 mg/kg/injection, schedule: Q01DX009 (ip), vehicle: saline) was 112 % of control; the T/C (endpoint: median survival time, dose: 24.0 mg/kg/injection, schedule: Q01DX009 (ip), vehicle: saline) was 87 % of control.

As to `COC1OCC(O)C(NC(C)=O)C1O` (stereo unspecified), the T/C under setting [1] is 105 % of control, the T/C under setting [2] was 107 % of control and the T/C under setting [3] is 100 % of control.

On to `O=S(=O)(/C=C/c1ccc(Cl)cc1)c1ccccc1`, for which the T/C is, setting by setting: under setting [1], 102 % of control; under setting [4], 91 % of control; under setting [2], 104 % of control; under setting [5], 96 % of control; under setting [3], 102 % of control; under setting [6], 94 % of control.

For the compound `CCOC(=O)CCN(CC)C(C)=O`, the T/C reads like this: under setting [4], 93 % of control; (endpoint: mean survival time, dose: 100.0 mg/kg/injection, schedule: Q04DX003 (ip), vehicle: saline sonified) 101 % of control; under setting [5], 93 % of control; (endpoint: mean survival time, dose: 200.0 mg/kg/injection, schedule: Q04DX003 (ip), vehicle: saline sonified) 95 % of control; under setting [6], 93 % of control; (endpoint: mean survival time, dose: 400.0 mg/kg/injection, schedule: Q04DX003 (ip), vehicle: saline sonified) 95 % of control.

Turning to `CCCCCCCCCCCCCCCOc1ccc2ccccc2c1`, the T/C was 326 % of control (endpoint: mean survival time, dose: 100.0 mg/kg/injection, schedule: Q01DX001 (ip), vehicle: Klucel (hydroxypropylcellulose) (HPC)); 326 % of control (endpoint: mean survival time, dose: 200.0 mg/kg/injection, schedule: Q01DX001 (ip), vehicle: Klucel (hydroxypropylcellulose) (HPC)); 326 % of control (endpoint: mean survival time, dose: 400.0 mg/kg/injection, schedule: Q01DX001 (ip), vehicle: Klucel (hydroxypropylcellulose) (HPC)).

As for `CN(C)CSc1ccccc1`, the T/C runs as follows: (endpoint: mean survival time, dose: 10.0 mg/kg/injection, schedule: Q01DX001 (ip), vehicle: saline) 101 % of control; (endpoint: mean survival time, dose: 20.0 mg/kg/injection, schedule: Q01DX001 (ip), vehicle: saline) 110 % of control; (endpoint: mean survival time, dose: 40.0 mg/kg/injection, schedule: Q01DX001 (ip), vehicle: saline) 104 % of control; (endpoint: mean survival time, dose: 80.0 mg/kg/injection, schedule: Q01DX001 (ip), vehicle: saline) 98 % of control.

Regarding `[Cl][Sn]([CH2]c1ccccc1)([CH2]c1ccccc1)[CH2]c1ccccc1`, the T/C by setting is: (endpoint: mean survival time, dose: 0.39 mg/kg/injection, schedule: Q04DX002 (ip), vehicle: saline with Tween-80) 94 % of control; (endpoint: mean survival time, dose: 0.78 mg/kg/injection, schedule: Q04DX002 (ip), vehicle: saline with Tween-80) 106 % of control; (endpoint: mean survival time, dose: 1.56 mg/kg/injection, schedule: Q04DX002 (ip), vehicle: saline with Tween-80) 108 % of control; (endpoint: mean survival time, dose: 3.13 mg/kg/injection, schedule: Q04DX002 (ip), vehicle: saline with Tween-80) 108 % of control.

On to `COc1ccc(Cl)cc1-c1c(C(=O)O)cccc1[N+](=O)[O-]`, for which the T/C (endpoint: mean survival time, dose: 100.0 mg/kg/injection, schedule: Q01DX001 (ip), vehicle: gum acacia) was 108 % of control; the T/C (endpoint: mean survival time, dose: 100.0 mg/kg/injection, schedule: Q04DX003 (ip), vehicle: gum acacia) is 102 % of control; the T/C (endpoint: mean survival time, dose: 200.0 mg/kg/injection, schedule: Q01DX001 (ip), vehicle: gum acacia) was 102 % of control; the T/C (endpoint: mean survival time, dose: 200.0 mg/kg/injection, schedule: Q04DX003 (ip), vehicle: gum acacia) was 102 % of control; the T/C (endpoint: mean survival time, dose: 400.0 mg/kg/injection, schedule: Q01DX001 (ip), vehicle: gum acacia) was 102 % of control; the T/C (endpoint: mean survival time, dose: 400.0 mg/kg/injection, schedule: Q04DX003 (ip), vehicle: gum acacia) is 90 % of control.

`CC(C)CC[n+]1ccc(C(N)=O)cc1`: the T/C reads like this: under setting [1], 97 % of control; under setting [7], 98 % of control; under setting [2], 100 % of control; under setting [8], 97 % of control; under setting [3], 95 % of control; under setting [9], 104 % of control.

In the case of `NC(Cc1c[nH]c2ccccc12)C(=O)OCc1ccccc1` (stereo unspecified), the T/C runs as follows: (endpoint: mean survival time, dose: 6.25 mg/kg/injection, schedule: Q01DX009 (ip), vehicle: water) 101 % of control; (endpoint: mean survival time, dose: 12.5 mg/kg/injection, schedule: Q01DX009 (ip), vehicle: water) 99 % of control; (endpoint: mean survival time, dose: 25.0 mg/kg/injection, schedule: Q01DX009 (ip), vehicle: water) 98 % of control and 106 % of control; (endpoint: mean survival time, dose: 50.0 mg/kg/injection, schedule: Q01DX009 (ip), vehicle: water) 107 % of control; under setting [10], 104 % of control; (endpoint: mean survival time, dose: 100.0 mg/kg/injection, schedule: Q01DX009 (ip), vehicle: water) 97 % of control and 86 % of control. Further, the T/C (endpoint: mean survival time, dose: 200.0 mg/kg/injection, schedule: Q01DX009 (ip), vehicle: saline with Tween-80) is 104 % of control and the T/C (endpoint: mean survival time, dose: 400.0 mg/kg/injection, schedule: Q01DX009 (ip), vehicle: saline with Tween-80) was 93 % of control.

As for `C(=C\c1ccccc1)/CSc1ncnc2nc[nH]c12`, the T/C is 106 % of control (endpoint: mean survival time, dose: 62.5 mg/kg/injection, schedule: Q01DX015 (ip), vehicle: saline); 116 % of control (endpoint: mean survival time, dose: 125.0 mg/kg/injection, schedule: Q01DX015 (ip), vehicle: saline); 104 % of control (endpoint: mean survival time, dose: 250.0 mg/kg/injection, schedule: Q01DX015 (ip), vehicle: saline); 166 % of control (endpoint: mean survival time, dose: 500.0 mg/kg/injection, schedule: Q01DX015 (ip), vehicle: saline).

Turning to `Cc1ncc(C)c(=O)[nH]1`, the T/C reads like this: (endpoint: mean survival time, dose: 44.0 mg/kg/injection, schedule: Q01DX Z (ip), vehicle: saline) 100 % of control; (endpoint: mean survival time, dose: 67.0 mg/kg/injection, schedule: Q01DX Z (ip), vehicle: saline) 105 % of control; (endpoint: mean survival time, dose: 100.0 mg/kg/injection, schedule: Q01DX Z (ip), vehicle: saline) 105 % of control; under setting [7], 93 % of control; (endpoint: mean survival time, dose: 150.0 mg/kg/injection, schedule: Q01DX Z (ip), vehicle: saline) 91 % of control; under setting [8], 96 % of control.

As for `CCOC(C#Cc1ccccc1)OCC`, the T/C was 105 % of control under setting [7], 114 % of control under setting [8] and 95 % of control under setting [9].

Turning to `CC(=O)C(CCC#N)(CCC#N)C(=O)Nc1ccccc1`, the T/C by setting is: under setting [11], 97 % of control; under setting [12], 98 % of control; under setting [13], 95 % of control.

As for `Cc1c(Cl)cccc1NC(=O)c1ccc(Cl)cc1`, the T/C was 87 % of control (endpoint: mean survival time, dose: 100.0 mg/kg/injection, schedule: Q01DX009 (ip), vehicle: Klucel (hydroxypropylcellulose) (HPC)); 93 % of control under setting [11]; 91 % of control (endpoint: mean survival time, dose: 200.0 mg/kg/injection, schedule: Q01DX009 (ip), vehicle: Klucel (hydroxypropylcellulose) (HPC)); 96 % of control under setting [12]; 97 % of control (endpoint: mean survival time, dose: 400.0 mg/kg/injection, schedule: Q01DX009 (ip), vehicle: Klucel (hydroxypropylcellulose) (HPC)); 91 % of control under setting [13].

Consider `COc1ccc(C(C#N)=C2C=CC(=NO)C=C2)cc1`, for which the T/C under setting [10] was 94 % of control.
